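Where inhibition never reached the appropriate level, the endpoint shown equals the highest concentration tested. Otherwise, values were interpolated linearly from a five-concentration, 48-hour dose response in 96-well plates. GI50 marks 50% less growth. TGI denotes the concentration required for complete inhibition of growth.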
Columns and labels:
Assay in all cases: NCI-60 cell line screen, 48 h
CCRF-CEM leukemia = system: CCRF-CEM leukemia
COLO 205 colon = system: COLO 205 colon
IGROV1 ovarian = system: IGROV1 ovarian
NCI-H23 lung = system: NCI-H23 lung
OVCAR-3 ovarian = system: OVCAR-3 ovarian
OVCAR-4 ovarian = system: OVCAR-4 ovarian
PC-3 prostate = system: PC-3 prostate
SF-539 CNS = system: SF-539 CNS
SK-MEL-5 melanoma = system: SK-MEL-5 melanoma
SN12C renal = system: SN12C renal
SNB-19 CNS = system: SNB-19 CNS
T-47D breast = system: T-47D breast
CAKI-1 renal = system: CAKI-1 renal

Compound	TGI (CCRF-CEM leukemia) [µM]	TGI (COLO 205 colon) [µM]	TGI (IGROV1 ovarian) [µM]	TGI (NCI-H23 lung) [µM]	TGI (OVCAR-3 ovarian) [µM]	TGI (OVCAR-4 ovarian) [µM]	TGI (PC-3 prostate) [µM]	TGI (SF-539 CNS) [µM]	TGI (SK-MEL-5 melanoma) [µM]	TGI (SN12C renal) [µM]	TGI (SNB-19 CNS) [µM]	TGI (T-47D breast) [µM]	TGI (CAKI-1 renal) [µM]	GI50 (CCRF-CEM leukemia) [µM]	GI50 (NCI-H23 lung) [µM]	GI50 (PC-3 prostate) [µM]	GI50 (SF-539 CNS) [µM]	GI50 (SK-MEL-5 melanoma) [µM]	GI50 (T-47D breast) [µM]
CCNC1CC(C(C)(C)NCC)CC=C1C (centres undefined)	> 100	> 100	> 100	> 100	> 100	> 100	> 100	> 100	> 100	> 100	> 100	> 100							
CC(C)(C)C1CCC2c3c([nH]c4ccccc34)C3C(=O)N(c4ccc(Br)cc4)C(=O)C3C2C1 (centres undefined)	39.8	23.3	48	38.1		41.5		38.7	62.2	27.6	40		43.8						
CCC12C=CCN3CC[C@]4(C(=C(C(=O)OC)[C@@H]1Nc1ccn(C5OC(COC(C)=O)C(OC(C)=O)C5OC(C)=O)c(=O)n1)Nc1ccccc14)C32 (some centres undefined)	13.2	8.11	9.68	3.43	7.8	3.57		9.17	8.1	8.24	9.27		15.8						
COc1cc2c[n+](C)c3c4ccccc4ccc3c2cc1OC	> 100	5.6		14.1	34.9	28.6	> 43.2	23.7	12.9	7.95	33.6	9.22	> 100						
Clc1ccc2c(NCCNc3nc(-c4ccccc4)cc(-c4ccccc4)n3)ccnc2c1	5.83			3.8			3.44	3.35	3.2			3.47		2.32	1.87	1.88	1.79	1.79	1.5
CC1C(c2ccccc2O)c2cc3c(cc2OC1N1CCCC1)OCO3 (centres undefined)	> 100	55.5	> 100	> 100	56.6		98.8	50.2	> 100	35.8	> 100	> 100	> 100						
COc1cc(Cn2c3c(c4cc(O)ccc42)C(=O)c2ccccc2C3=O)cc(OC)c1		34.7	13	32.2	77.7	33.6	11.8	7.38	18.7	42.2	25.4	32.1	55.5						
COc1cccc(/C=N/n2c(-c3ccccc3)n[nH]c2=O)c1	> 100	> 100		90.5	> 100	> 100	> 100	> 100		> 100	> 100	> 100	> 100						
COc1cc(/C=C2\NC(=O)N(/C=C3\C(=O)Oc4ccccc4C3=O)C2=O)ccc1O	92.6	> 100	> 100	> 100		> 100	> 100	> 100	> 100	> 100	> 100	> 100	> 100						
Cc1[nH]n(-c2ccccc2)c(=S)c1C(=O)c1ccccc1	57	> 100	> 100	> 100		> 100		> 100	> 100	45.1	> 100		> 100						
COc1ccc(C2=C(OC(C)=O)c3cccn3-c3ccccc3S2)cc1	> 10	8.53	> 10	7.73		> 10	> 10		> 10	> 10		> 10	> 10						
O=C1c2c(Br)sc(Br)c2[C@H]2NC(=S)O[C@@H]12		27.8	32	29.9	20.4	31.9	27.7	33.6	29.7	32.7	50.8	69.3	26.7						
Nc1nc(=O)n(C2OC(CO)C(O)C2O)cc1F (centres undefined)	> 43.8	> 100	> 100	> 100	> 100	> 100		> 100	> 100	> 100	> 100		> 100						
CC(O[Si](C)(C)C(C)(C)C)[C@H](NC(=O)OCC(Cl)(Cl)Cl)C(=O)O (some centres undefined)	> 100	> 100	> 100	> 100	> 100	> 100	> 100	> 100	> 100	> 100	> 100	> 100							
CCCCc1ccc(Nc2nc(Cl)c3[nH]cnc3n2)cc1	> 100	43.4	71.8	33.9	28.9	> 100		32.7	31.6	49.9	43.5	37.2	54.1						
Cc1ccc2c(c1)NC(=O)C(N=[N+]=[N-])(c1ccccc1)C2=O (centres undefined)	> 100	27.1	> 100	45.9	37.7	> 100		81.5	47.4	48.2	98.1		78.1						
CC(C)NC(C)Cc1ccccc1 (centres undefined)	> 100	> 100	> 100	> 100	> 100	> 100		> 100	> 100	> 100	> 100		> 100						
CCC(C)(C)NC1=C(NC(C)=O)C(=O)c2ccccc2C1=O	41.3	> 75	> 75	73.7	> 75	> 75		> 75	26	> 75	> 75								
CC1=CCC2(C#N)CCC1C2=O (centres undefined)	> 100	> 100	> 100	> 100	> 100	> 100		> 100	> 100	> 100	> 100		> 100						

From PubChem BioAssay (NCI)
